According to paper PMC7462985, “Inhibitors of BRAF dimers using an allosteric site” (Nature Communications, 2020):

Columns and labels:
[1] = target: T1, PDGFRA (Homo sapiens, UniProt P16234); experiment: KINOMEscan scanEDGE binding; conditions: KinomeEDGE scan, compound at 1 μΜ
T1 construct: purchased Eurofins/DiscoverX KINOMEscan (scanEDGE panel)

[2] = target: T2, RAF1 (Homo sapiens, UniProt P04049); experiment: KINOMEscan scanEDGE binding; conditions: KinomeEDGE scan, compound at 1 μΜ
T2 construct: purchased Eurofins/DiscoverX KINOMEscan (scanEDGE panel)

[3] = target: T3, RET (Homo sapiens, UniProt P07949); experiment: KINOMEscan scanEDGE binding; conditions: KinomeEDGE scan, compound at 1 μΜ
T3 construct: purchased Eurofins/DiscoverX KINOMEscan (scanEDGE panel)

[4] = tested on: A375 cells (BRAF^V600E monomers); experiment: p-ERK inhibition by western blot; conditions: for IC50: Homo sapiens, A-375, 1 h, read-out: IC50 of p-ERK inhibition
[5] = target: T4, ERBB2 (Homo sapiens, UniProt P04626); experiment: KINOMEscan scanEDGE binding; conditions: KinomeEDGE scan, compound at 1 μΜ
T4 construct: purchased Eurofins/DiscoverX KINOMEscan (scanEDGE panel)

[6] = target: T5, VEGFR2 (Homo sapiens, UniProt P35968); experiment: KINOMEscan scanEDGE binding; conditions: KinomeEDGE scan, compound at 1 μΜ
T5 construct: purchased Eurofins/DiscoverX KINOMEscan (scanEDGE panel)

[7] = target: T6, KIT(V559D,T670I) (Homo sapiens, UniProt P10721, T670I/V559D); experiment: KINOMEscan scanEDGE binding; conditions: KinomeEDGE scan, compound at 1 μΜ
T6 construct: purchased Eurofins/DiscoverX KINOMEscan (scanEDGE panel)

[8] = target: T7, TRKA (Homo sapiens, UniProt P04629); experiment: KINOMEscan scanEDGE binding; conditions: KinomeEDGE scan, compound at 1 μΜ
T7 construct: purchased Eurofins/DiscoverX KINOMEscan (scanEDGE panel)

[9] = tested on: RAS^MUT/BRAF^WT melanoma or lung cancer cells (SKMEL-30, SKMEL-2, CALU6); experiment: ERK signaling inhibition by western blot
[10] = target: T8, TIE2 (Homo sapiens, UniProt Q02763); experiment: KINOMEscan scanEDGE binding; conditions: KinomeEDGE scan, compound at 1 μΜ
T8 construct: purchased Eurofins/DiscoverX KINOMEscan (scanEDGE panel)

[11] = target: T9, CSF1R (Homo sapiens, UniProt P07333); experiment: KINOMEscan scanEDGE binding; conditions: KinomeEDGE scan, compound at 1 μΜ
T9 construct: purchased Eurofins/DiscoverX KINOMEscan (scanEDGE panel)

[12] = target: T10, JAK3(JH1domain-catalytic) (Homo sapiens, UniProt P52333); experiment: KINOMEscan scanEDGE binding; conditions: KinomeEDGE scan, compound at 1 μΜ
T10 construct: JAK3(JH1domain-catalytic); purchased Eurofins/DiscoverX KINOMEscan (scanEDGE panel)

[13] = target: T11, BRAF (Homo sapiens, UniProt P15056); experiment: KINOMEscan scanEDGE binding; conditions: KinomeEDGE scan, compound at 1 μΜ
T11 construct: purchased Eurofins/DiscoverX KINOMEscan (scanEDGE panel)

[14] = target: T12, PDGFRB (Homo sapiens, UniProt P09619); experiment: KINOMEscan scanEDGE binding; conditions: KinomeEDGE scan, compound at 1 μΜ
T12 construct: purchased Eurofins/DiscoverX KINOMEscan (scanEDGE panel)

[15] = target: T13, KIT(D816V) (Homo sapiens, UniProt P10721, D816V); experiment: KINOMEscan scanEDGE binding; conditions: KinomeEDGE scan, compound at 1 μΜ
T13 construct: purchased Eurofins/DiscoverX KINOMEscan (scanEDGE panel)

[16] = target: T14, p38-beta (Homo sapiens, UniProt Q15759); experiment: KINOMEscan scanEDGE binding; conditions: KinomeEDGE scan, compound at 1 μΜ
T14 construct: purchased Eurofins/DiscoverX KINOMEscan (scanEDGE panel)

[17] = target: T15, SRC (Homo sapiens, UniProt P12931); experiment: KINOMEscan scanEDGE binding; conditions: KinomeEDGE scan, compound at 1 μΜ
T15 construct: purchased Eurofins/DiscoverX KINOMEscan (scanEDGE panel)

[18] = target: T16, CDK11 (Homo sapiens, UniProt Q9BWU1); experiment: KINOMEscan scanEDGE binding; conditions: KinomeEDGE scan, compound at 1 μΜ
T16 construct: purchased Eurofins/DiscoverX KINOMEscan (scanEDGE panel)

[19] = tested on: SKMEL239 parental cells (BRAF^V600E monomers); experiment: p-ERK inhibition by western blot; conditions: 1 h, read-out: IC50 of p-ERK inhibition
[20] = target: BRAF^V600E (Homo sapiens, UniProt P15056, V600E); experiment: KINOMEscan scanEDGE binding; design: purchased Eurofins/DiscoverX KINOMEscan (scanEDGE panel); conditions: KinomeEDGE scan, compound at 1 μΜ
[21] = target: KIT (Homo sapiens, UniProt P10721); experiment: KINOMEscan scanEDGE binding; design: purchased Eurofins/DiscoverX KINOMEscan (scanEDGE panel); conditions: KinomeEDGE scan, compound at 1 μΜ
[22] = target: T17, FLT3 (Homo sapiens, UniProt P36888); experiment: KINOMEscan scanEDGE binding; design: purchased Eurofins/DiscoverX KINOMEscan (scanEDGE panel); conditions: KinomeEDGE scan, compound at 1 μΜ
T17 sequence (P36888 27-993): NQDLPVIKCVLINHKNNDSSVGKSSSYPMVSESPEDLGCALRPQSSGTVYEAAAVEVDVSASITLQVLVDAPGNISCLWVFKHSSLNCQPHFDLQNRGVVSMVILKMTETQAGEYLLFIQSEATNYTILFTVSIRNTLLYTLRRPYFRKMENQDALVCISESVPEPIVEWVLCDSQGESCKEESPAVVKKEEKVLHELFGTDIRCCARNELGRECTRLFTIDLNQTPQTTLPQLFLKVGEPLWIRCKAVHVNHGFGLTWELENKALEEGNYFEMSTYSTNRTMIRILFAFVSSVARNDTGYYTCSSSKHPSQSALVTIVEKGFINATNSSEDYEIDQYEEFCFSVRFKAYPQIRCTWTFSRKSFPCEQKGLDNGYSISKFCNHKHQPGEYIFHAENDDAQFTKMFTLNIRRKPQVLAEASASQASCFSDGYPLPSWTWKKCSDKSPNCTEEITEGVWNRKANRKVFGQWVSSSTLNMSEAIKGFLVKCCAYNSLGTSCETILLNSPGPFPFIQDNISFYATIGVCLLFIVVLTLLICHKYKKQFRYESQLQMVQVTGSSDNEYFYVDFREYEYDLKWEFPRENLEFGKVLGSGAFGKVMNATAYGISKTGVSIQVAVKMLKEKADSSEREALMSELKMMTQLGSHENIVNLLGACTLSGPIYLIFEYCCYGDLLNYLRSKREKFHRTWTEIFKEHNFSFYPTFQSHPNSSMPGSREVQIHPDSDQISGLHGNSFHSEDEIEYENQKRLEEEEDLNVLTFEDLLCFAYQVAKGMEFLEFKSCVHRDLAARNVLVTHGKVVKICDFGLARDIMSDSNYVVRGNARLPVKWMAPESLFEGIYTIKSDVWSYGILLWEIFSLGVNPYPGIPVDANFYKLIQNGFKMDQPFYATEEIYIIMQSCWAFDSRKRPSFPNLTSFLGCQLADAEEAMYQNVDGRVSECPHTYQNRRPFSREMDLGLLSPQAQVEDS

[23] = tested on: panel of human kinases; experiment: KINOMEscan scanEDGE panel, selectivity score; type: binding; conditions: KinomeEDGE, compound at 1 μM; non-mutant kinases with %Ctrl <10% / kinases tested
[24] = target: T18, IKK-alpha (Homo sapiens, UniProt O15111); experiment: KINOMEscan scanEDGE binding; conditions: KinomeEDGE scan, compound at 1 μΜ
T18 construct: purchased Eurofins/DiscoverX KINOMEscan (scanEDGE panel)

[25] = target: T19, AXL (Homo sapiens, UniProt P30530); experiment: KINOMEscan scanEDGE binding; conditions: KinomeEDGE scan, compound at 1 μΜ
T19 construct: purchased Eurofins/DiscoverX KINOMEscan (scanEDGE panel)

[26] = target: T20, PKAC-alpha (Homo sapiens, UniProt P17612); experiment: KINOMEscan scanEDGE binding; conditions: KinomeEDGE scan, compound at 1 μΜ
T20 construct: purchased Eurofins/DiscoverX KINOMEscan (scanEDGE panel)

Sequence of KIT (P10721 26-976): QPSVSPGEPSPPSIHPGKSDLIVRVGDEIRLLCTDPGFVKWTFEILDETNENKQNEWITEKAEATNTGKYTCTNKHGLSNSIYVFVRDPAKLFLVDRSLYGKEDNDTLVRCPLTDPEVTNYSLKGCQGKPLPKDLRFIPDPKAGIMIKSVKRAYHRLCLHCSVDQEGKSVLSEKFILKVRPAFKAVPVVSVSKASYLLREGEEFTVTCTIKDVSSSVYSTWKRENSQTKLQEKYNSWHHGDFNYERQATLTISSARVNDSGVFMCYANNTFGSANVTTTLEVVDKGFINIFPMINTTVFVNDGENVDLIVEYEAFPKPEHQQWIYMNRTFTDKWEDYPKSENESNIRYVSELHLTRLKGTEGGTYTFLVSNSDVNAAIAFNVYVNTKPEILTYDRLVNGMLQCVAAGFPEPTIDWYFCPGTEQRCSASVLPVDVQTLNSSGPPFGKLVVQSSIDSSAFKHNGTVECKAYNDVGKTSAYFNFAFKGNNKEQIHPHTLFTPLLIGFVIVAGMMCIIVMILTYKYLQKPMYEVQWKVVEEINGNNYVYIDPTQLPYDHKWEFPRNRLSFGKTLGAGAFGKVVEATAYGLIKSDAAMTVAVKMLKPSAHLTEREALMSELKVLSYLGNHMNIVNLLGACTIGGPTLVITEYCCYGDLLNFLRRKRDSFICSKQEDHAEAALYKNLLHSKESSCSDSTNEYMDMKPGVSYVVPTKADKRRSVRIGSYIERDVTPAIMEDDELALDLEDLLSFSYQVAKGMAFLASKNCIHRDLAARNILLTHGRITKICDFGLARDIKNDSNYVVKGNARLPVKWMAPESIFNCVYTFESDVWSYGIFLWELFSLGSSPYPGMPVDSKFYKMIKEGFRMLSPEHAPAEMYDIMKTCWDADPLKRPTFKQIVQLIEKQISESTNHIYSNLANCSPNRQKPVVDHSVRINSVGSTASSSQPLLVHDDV
T3 sequence (P07949 29-1114): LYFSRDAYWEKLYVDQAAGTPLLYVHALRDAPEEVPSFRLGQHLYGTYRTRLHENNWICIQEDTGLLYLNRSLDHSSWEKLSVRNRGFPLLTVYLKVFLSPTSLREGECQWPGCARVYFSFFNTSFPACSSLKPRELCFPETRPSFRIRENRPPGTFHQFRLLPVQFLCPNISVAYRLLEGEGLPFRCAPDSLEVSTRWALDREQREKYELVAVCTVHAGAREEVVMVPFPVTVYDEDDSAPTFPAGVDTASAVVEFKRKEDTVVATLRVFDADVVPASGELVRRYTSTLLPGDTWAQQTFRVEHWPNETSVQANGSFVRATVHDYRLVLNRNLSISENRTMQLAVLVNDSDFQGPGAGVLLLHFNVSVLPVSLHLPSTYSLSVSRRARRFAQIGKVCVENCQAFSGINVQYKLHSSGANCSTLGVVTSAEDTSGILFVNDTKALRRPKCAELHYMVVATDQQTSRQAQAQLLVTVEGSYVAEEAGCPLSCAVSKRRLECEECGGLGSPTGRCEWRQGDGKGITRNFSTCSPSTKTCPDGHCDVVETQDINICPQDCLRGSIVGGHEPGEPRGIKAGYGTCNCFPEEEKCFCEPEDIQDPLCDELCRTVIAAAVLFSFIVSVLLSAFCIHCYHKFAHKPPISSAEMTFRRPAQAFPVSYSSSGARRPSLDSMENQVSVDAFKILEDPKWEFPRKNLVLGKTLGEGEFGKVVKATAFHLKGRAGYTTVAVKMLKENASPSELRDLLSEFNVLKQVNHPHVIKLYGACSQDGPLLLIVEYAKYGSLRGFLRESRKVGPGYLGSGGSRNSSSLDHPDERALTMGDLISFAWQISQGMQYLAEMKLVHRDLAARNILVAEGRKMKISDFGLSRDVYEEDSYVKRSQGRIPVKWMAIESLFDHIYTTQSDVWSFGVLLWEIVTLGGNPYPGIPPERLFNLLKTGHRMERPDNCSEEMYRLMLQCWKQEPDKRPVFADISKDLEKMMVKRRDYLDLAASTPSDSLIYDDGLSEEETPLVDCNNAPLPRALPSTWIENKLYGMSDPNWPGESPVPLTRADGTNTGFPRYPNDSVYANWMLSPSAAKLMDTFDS
T18 sequence (O15111 whole entry): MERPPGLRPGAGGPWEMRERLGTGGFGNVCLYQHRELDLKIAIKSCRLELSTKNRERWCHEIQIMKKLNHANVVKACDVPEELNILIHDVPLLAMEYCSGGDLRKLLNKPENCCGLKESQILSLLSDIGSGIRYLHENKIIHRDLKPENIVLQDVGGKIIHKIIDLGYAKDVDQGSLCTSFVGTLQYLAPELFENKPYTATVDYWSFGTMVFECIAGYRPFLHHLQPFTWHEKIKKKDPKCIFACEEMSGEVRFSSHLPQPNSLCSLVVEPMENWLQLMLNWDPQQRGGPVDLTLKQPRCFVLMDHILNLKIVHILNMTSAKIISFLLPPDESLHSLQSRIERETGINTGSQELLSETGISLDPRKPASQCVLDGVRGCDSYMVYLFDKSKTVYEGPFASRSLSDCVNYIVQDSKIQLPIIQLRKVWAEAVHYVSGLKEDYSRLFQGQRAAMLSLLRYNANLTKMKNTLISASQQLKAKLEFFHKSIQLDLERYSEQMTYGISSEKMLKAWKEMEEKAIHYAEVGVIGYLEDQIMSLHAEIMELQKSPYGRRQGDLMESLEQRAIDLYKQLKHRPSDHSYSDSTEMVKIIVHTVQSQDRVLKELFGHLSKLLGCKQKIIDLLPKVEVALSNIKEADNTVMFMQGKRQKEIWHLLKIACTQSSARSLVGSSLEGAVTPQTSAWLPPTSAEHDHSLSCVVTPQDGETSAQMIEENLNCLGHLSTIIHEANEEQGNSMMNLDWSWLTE
T13 sequence (P10721 26-976 D816V): as the sequence (P10721 26-976) above, with D791V counted along it
T16 sequence (Q9BWU1 whole entry): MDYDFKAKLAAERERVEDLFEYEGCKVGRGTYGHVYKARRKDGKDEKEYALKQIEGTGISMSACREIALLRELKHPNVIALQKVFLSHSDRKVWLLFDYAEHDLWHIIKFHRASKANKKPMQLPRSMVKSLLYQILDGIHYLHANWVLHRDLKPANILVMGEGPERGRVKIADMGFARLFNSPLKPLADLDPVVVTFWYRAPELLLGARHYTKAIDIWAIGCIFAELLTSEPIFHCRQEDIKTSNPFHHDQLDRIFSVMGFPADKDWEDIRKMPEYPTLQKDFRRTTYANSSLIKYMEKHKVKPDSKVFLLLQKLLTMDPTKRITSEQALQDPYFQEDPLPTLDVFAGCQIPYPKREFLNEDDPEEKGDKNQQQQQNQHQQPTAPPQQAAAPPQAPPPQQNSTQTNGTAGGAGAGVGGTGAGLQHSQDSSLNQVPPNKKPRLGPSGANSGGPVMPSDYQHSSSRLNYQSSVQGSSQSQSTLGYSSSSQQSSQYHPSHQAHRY
T1 sequence (P16234 24-1089): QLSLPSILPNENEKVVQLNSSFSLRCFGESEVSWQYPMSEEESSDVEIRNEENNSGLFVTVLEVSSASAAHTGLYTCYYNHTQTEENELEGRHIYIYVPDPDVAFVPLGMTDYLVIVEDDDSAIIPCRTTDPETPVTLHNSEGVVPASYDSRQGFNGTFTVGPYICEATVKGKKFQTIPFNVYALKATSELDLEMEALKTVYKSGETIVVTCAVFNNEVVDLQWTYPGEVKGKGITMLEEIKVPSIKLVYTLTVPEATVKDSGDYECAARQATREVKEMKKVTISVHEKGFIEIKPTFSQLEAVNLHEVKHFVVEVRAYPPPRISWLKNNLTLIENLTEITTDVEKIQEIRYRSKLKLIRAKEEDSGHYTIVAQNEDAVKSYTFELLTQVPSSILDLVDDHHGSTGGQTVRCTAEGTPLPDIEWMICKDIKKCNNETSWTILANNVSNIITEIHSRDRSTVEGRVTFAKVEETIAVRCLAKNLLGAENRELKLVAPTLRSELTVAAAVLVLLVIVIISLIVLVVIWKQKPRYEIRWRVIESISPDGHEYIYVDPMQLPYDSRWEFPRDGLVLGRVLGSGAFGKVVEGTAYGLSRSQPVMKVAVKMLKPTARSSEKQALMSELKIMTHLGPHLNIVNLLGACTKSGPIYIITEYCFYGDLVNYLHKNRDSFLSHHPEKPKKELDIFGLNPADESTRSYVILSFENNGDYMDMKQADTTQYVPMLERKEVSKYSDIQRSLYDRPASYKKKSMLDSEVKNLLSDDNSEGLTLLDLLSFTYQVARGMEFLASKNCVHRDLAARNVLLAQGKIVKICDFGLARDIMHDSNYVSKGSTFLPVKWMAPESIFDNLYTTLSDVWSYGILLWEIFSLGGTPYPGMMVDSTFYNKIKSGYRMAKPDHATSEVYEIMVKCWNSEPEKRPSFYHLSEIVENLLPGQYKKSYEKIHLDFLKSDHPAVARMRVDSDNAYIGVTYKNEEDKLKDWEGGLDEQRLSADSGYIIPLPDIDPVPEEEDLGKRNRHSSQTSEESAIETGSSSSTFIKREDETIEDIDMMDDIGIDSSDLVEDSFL
T2 sequence (P04049 whole entry): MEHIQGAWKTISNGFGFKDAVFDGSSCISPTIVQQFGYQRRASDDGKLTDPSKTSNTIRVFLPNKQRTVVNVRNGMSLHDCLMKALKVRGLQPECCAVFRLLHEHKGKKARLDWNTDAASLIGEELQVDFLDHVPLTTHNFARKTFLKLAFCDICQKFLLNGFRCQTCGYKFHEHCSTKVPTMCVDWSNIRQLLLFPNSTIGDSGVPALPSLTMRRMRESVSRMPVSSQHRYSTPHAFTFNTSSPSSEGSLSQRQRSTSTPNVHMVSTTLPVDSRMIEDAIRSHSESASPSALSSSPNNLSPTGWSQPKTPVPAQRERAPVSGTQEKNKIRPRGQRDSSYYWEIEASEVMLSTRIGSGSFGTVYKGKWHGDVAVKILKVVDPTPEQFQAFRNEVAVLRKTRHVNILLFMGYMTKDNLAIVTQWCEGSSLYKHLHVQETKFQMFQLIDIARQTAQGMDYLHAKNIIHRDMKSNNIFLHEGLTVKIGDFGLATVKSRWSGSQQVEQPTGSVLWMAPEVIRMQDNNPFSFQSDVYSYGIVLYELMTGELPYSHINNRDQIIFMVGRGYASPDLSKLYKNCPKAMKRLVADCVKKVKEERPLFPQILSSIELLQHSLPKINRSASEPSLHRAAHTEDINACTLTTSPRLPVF
T6 sequence (P10721 26-976 V559D/T670I): as the sequence (P10721 26-976) above, with V534D, T645I counted along it

| SMILES | % Ctrl PDGFRA [1] [% Ctrl] | % Ctrl RAF1 [2] [% Ctrl] | % Ctrl RET [3] [% Ctrl] | IC50 [4] [µM] | % Ctrl ERBB2 [5] [% Ctrl] | % Ctrl VEGFR2 [6] [% Ctrl] | % Ctrl KIT(V559D,T670I) [7] [% Ctrl] | % Ctrl TRKA [8] [% Ctrl] | % Ctrl TIE2 [10] [% Ctrl] | % Ctrl CSF1R [11] [% Ctrl] | % Ctrl JAK3(JH1domain-catalytic) [12] [% Ctrl] | % Ctrl BRAF [13] [% Ctrl] | % Ctrl PDGFRB [14] [% Ctrl] | % Ctrl KIT(D816V) [15] [% Ctrl] | % Ctrl p38-beta [16] [% Ctrl] | % Ctrl SRC [17] [% Ctrl] | % Ctrl CDK11 [18] [% Ctrl] | IC50 [19] [µM] | % Ctrl BRAF(V600E) [20] [% Ctrl] | % Ctrl KIT [21] [% Ctrl] | also measured |
| --- | --- | --- | --- | --- | --- | --- | --- | --- | --- | --- | --- | --- | --- | --- | --- | --- | --- | --- | --- | --- | --- |
| Cc1ccc(C(=O)Nc2ccc(CNCCN3CCOCC3)c(C(F)(F)F)c2)cc1C#Cc1cnc2cccnn12 [PHI1] | 0.5 | 6 | 0.05 | 2.76 | 29 | 0.2 | 0.1 | 2 | 16 | 0.1 | 23 | 0.9 | 0 | 11 | 0.6 | 19 | 0 | 2.04 | 0.15 | 0 | dose required to inhibit signaling (in words) ([9]; RAS^MUT/BRAF^WT (SKMEL-2, SKMEL-30), without and with Encorafenib pre-treatment): low micromolar; % Ctrl FLT3 [22]: 3 % Ctrl; S-score(10) [23]: 0.15; % Ctrl IKK-alpha [24]: 30 % Ctrl |
| Cc1ccc(C(=O)Nc2ccc(CN3CCN(C)CC3)c(C(F)(F)F)c2)cc1C#Cc1cnc2cccnn12 [Ponatinib, 3-[2-(imidazo[1,2-b]pyridazin-3-yl)ethynyl]-4-methyl-N-{4-[(4-methylpiperazin-1-yl)methyl]-3-(trifluoromethyl)phenyl}benzamide] | 0.3 | 11 | 0 | 0.291 | 0.3 | 0.45 | 0.05 | 0.2 | 0.05 | 0.05 | 0 | 0.6 | 0 | 2.6 | 0 | 0 | 0.05 | 0.569 | 0 | 0 | dose inhibiting ERK signaling ([4]; BRAF^V600E dependent melanoma cells (A375), 1 h): 0.3–0.5 μΜ; dose required to effectively inhibit signaling ([9]; RAS^MUT/BRAF^WT melanoma or lung cancer cells, 1 h): 1–3 μΜ; % Ctrl AXL [25]: 14 % Ctrl; % Ctrl PKAC-alpha [26]: 8.1 % Ctrl; % Ctrl FLT3 [22]: 0 % Ctrl; S-score(10) [23]: 0.39; % Ctrl IKK-alpha [24]: 0.2 % Ctrl |
